This is an account of results in publication PMC5908784, “Extracellular loops 2 and 3 of the calcitonin receptor selectively modify agonist binding and efficacy” (Biochemical Pharmacology, 2018).

Residue numbers refer to the chain shown, from its start. Where no end group is shown, it is not given here.

Common to all, as to test: Homologous whole cell competition binding
Holding throughout (conditions): homologous competition of 125I-sCT(8-32), whole cells, mean ± S.E.M., SEM

In test [1] the target is T1, hCTR S292A (Homo sapiens, UniProt P30988, S292A).
T1 construct: expressed in transfected cells
T1 sequence (P30988 25-474 S292A): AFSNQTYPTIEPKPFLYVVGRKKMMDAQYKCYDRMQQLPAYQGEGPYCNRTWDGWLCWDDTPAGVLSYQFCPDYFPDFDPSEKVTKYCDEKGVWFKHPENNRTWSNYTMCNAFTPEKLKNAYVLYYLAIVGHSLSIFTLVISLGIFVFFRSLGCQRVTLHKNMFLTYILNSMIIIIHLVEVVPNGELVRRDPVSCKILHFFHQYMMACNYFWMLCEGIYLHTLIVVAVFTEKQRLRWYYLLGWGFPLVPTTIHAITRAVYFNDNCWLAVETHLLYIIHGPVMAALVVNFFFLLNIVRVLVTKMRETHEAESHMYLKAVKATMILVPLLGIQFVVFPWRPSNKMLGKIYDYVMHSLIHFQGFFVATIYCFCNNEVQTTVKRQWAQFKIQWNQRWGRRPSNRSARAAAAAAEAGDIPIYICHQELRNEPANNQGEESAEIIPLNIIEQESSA
As to the method:
(§1) Homologous radioligand competition was performed on 2.5 × 10^4 cells/well seeded into 96-well trays and cultured overnight. Cells were incubated overnight at 4 °C with two concentrations of ^125I-sCT(8-32) (between 25 and 100 pM; specific activity, 2000 Ci/mmol^9) and serial dilutions of non-iodinated sCT(8-32). Non-bound ligand was removed and bound ligand activity was measured using a γ counter (Wallac Wizard 1470 Gamma Counter, Perkin Elmer, 80% counter efficiency). Values were normalized against non-specific binding (0%) defined by the presence of 1 μM of unlabelled sCT(8-32), and total ligand bound in absence of competing sCT(8-32) (100%).
(§2) IC50 and Bmax values were estimated from competitive inhibition of ^125I-sCT(8-32) binding using a 3-parameter logistic equation (log(inhibitor versus response)) in Prism (v7; Graphpad). Data were corrected for radioligand occupancy using the Cheng-Prusoff equation in Prism; as such data are reported as pKi. Emax and EC50 were estimated from concentration-response curves using with a 3-parameter logistic equation in Prism (v7). These values are a composite of functional affinity, efficacy and stimulus response coupling. The Black and Leff operational model of agonism was applied to separate effects on pathway-specific efficacy (τ) from those that modify ligand functional affinity (pKA). Derived τ values were normalized to experimentally determined levels of cell surface expression to provide a measure of efficacy (τc) that is independent of affinity and altered cell surface receptor expression. pKi, pKA and log τc values for mutant receptors were statistically compared to those of the WT receptor using a one-way analysis of variance (ANOVA) and Dunnett’s post-test. Significance was accepted at P < 0.05.

Test [2] concerns the target T2, hCTR M376A (Homo sapiens, UniProt P30988, M376A).
T2 construct: c-Myc (N); expressed in transfected cells
T2 sequence (P30988 25-474 M376A): T1 sequence (P30988 25-474 S292A) with A268S, M352A
Here is the method: as §1, §2

In test [3] the target is T3, hCTR N288A (Homo sapiens, UniProt P30988, N288A).
T3 construct: expressed in transfected cells
T3 sequence (P30988 25-474 N288A): T1 sequence (P30988 25-474 S292A) with N264A, A268S
As to the method:
as §1, §2

The target in test [4] is T4, hCTR L298A (Homo sapiens, UniProt P30988, L298A).
T4 construct: c-Myc (N); expressed in transfected cells
T4 sequence (P30988 25-474 L298A): T1 sequence (P30988 25-474 S292A) with A268S, L274A
Here is the method: as §1, §2

The term Ki denotes the dissociation constant of the complex between target and ligand, obtained from inhibition or displacement. Higher therefore signals weaker binding. For “VLGKLSQELHKLQTYPRTNTGSGTP-NH2 [sCT(8-32)]”, the Ki was 0.0631 nM in test [1], 0.132 nM in test [2], 0.234 nM in test [3] and 0.148 nM in test [4].
